Measured values from article PMC2813745, “A novel inhibitor of the PI3K/Akt pathway based on the structure of inositol 1,3,4,5,6-pentakisphosphate” (British Journal of Cancer, 2010).

What was measured:
[1] = tested on: Akt phosphorylation at Ser473 and Thr308 in PC3 tumours; assay: Akt phosphorylation in excised tumours (western blot); format: in vivo, nude athymic CD-1 nu/nu mice; settings: single dose 50 mg kg^−1, tumours excised 24 h after treatment
Method: Animals were killed 24 h after treatment and tumour samples were collected and snap frozen. Frozen specimens of tumour tissue were homogenised with a Polytron homogeniser in a lysis buffer (ratio 1 : 1 w/v) containing 50 mM Tris-HCl (pH 7.4), 5 mM EDTA, 0.1% Nonidet NP-40, 250 mM NaCl, 50 mM NaF and proteases and phosphatase inhibitors. After centrifugation at 13 000 r.p.m. for 10 min at 4°C, 80 μg of protein was separated on SDS–PAGE and transferred to a polyvinylidene difluoride membrane (Millipore, MA, USA). Membranes were probed with the indicated antibodies.
The inositol compounds (12.5–25–50 mg kg^−1 day^−1) and vehicle (water) were given daily by intraperitoneal (i.p.) injections for 14 consecutive days (days 15–28). Tumour size was assessed twice weekly. (A, B) Tumour growth in 2-O-Bn-InsP5-treated mice (A) and InsP5-treated mice (B) compared with control group measured for the duration of the experiment. Results are expressed as mean±s.e. (C) Top: Table showing all P-values for the indicated doses of 2-O-Bn-InsP5 compared to controls at the indicated days of treatment (NS=not significant). […] The percentage of tumour weight inhibition (TWI%), the tumour growth delay (T−C) and the log cell kill (LCK) were calculated as described in the MATERIALS AND METHODS section. […] Phosphorylation of Akt at its residues Ser473 and Thr308 was assessed by using specific antibodies. […]

[2] = tested on: Akt phosphorylation in ASPC1; assay: Akt activation by western blot in ASPC1; format: cell-based, human; settings: ASPC1, results not shown
BxPc-3 = assay: Cell survival by cell counting, BxPc-3; format: cell-based, human; settings: BxPc-3, 72 h
Method: (§1) Cells seeded in a 24-well plate were treated with the indicated compounds in serum free DMEM or DMEM containing 0.5% FBS (PC3). After 72 h, the number of surviving cells was assessed by manual cell counting or by using the cell counter CDA-500 (Sysmex, Milton Keynes, UK). Alternatively, after 48 h, the number of apoptotic cells was assessed by acridine orange/ethidium bromide assay as described ([Piccolo et al, 2004]; [Maffucci et al, 2005]). SRB test was carried out in SKOV-3 and PC3 seeded in 96-well plate (3800 cells per well or 5800 cells per well, respectively) after 72 h of treatment as described ([Cappella et al, 2001]).
The number of surviving cells was assessed by cell counting. Data are mean±s.e. of n=3 (A), n=6 (B), n=3 (C) and n=4 (D) independent experiments carried out in duplicate. ^*=P<0.01; ^**=P<0.05. […] After 72 h the number of surviving cells was assessed by SRB assay. Data are mean±s.e. of n=2 independent experiments.

SKBR3 [3] = assay: Acridine orange/ethidium bromide apoptosis assay, SKBR3; format: cell-based, human
Method: as §1
(§2) The number of surviving cells was assessed by cell counting. Data are mean±s.e. of n=4 (A) and n=2 (B) independent experiments. ^**=P<0.05. […] The number of apoptotic cells was assessed by acridine orange/ethidium bromide assay. Data are mean±s.e. of three independent experiments. ^**=P<0.05.

SKBR3 [4] = assay: Cell survival by cell counting, SKBR3; format: cell-based, human; settings: SKBR3, 72 h
Method: as §1, §2

O=P(O)(O)OC1C(OCc2ccccc2)C(OP(=O)(O)O)C(OP(=O)(O)O)C(OP(=O)(O)O)C1OP(=O)(O)O (stereo not drawn) [2-O-Bn-InsP5, 2-O-benzyl-myo-inositol 1,3,4,5,6-pentakisphosphate]
Akt phosphorylation at residue Ser473 in tumours [1]: markedly reduced Akt phosphorylation at its residue Ser473 in all 2-O-Bn-InsP5-treated mice | Akt phosphorylation at residue Thr308 in tumours [1]: clear inhibition of Akt phosphorylation at its residue Thr308 was detected in five out of seven | Akt phosphorylation [2]: able to block Akt phosphorylation | number of surviving cells (BxPc-3): more potent than InsP5 at a concentration of 50 μM | percentage of apoptotic cells (SKBR3 [3]): percentage of apoptotic cells was higher in 2-O-Bn-InsP5-treated compared with InsP5-treated | number of surviving cells (SKBR3 [4]): strongly reduced the number of surviving
